Series [1] is described as follows: Viscosity of aqueous solutions. It is filed as physicochemical.
Another series relates to Sprague-Dawley rats. Briefly: Intravenous toxicity, lethal dose for 50% of the animals. The following applies: i.v. via the caudal vein at 2.2ml/min, mortality during seven days. It is filed as in vivo.
A further series is described as follows: Iodine content. It is filed as physicochemical. The following applies: for Iodine Content (%): comparison table with IOTROLAN
Series [2] in a line: Osmolality of aqueous solutions. It is filed as physicochemical.
The subject of another series is rat. The series is described as follows: ED50 after intracisternal (i.cis.) administration. It is filed as in vivo.

13 compounds from patent EP0571593B1, “NEW NON IONIC IODIZED AGENTS FOR X-RAY CONTRASTING, METHOD FOR PREPARING THEM AND GALENICAL COMPOSITIONS CONTAINING THEM” (CENTRO INVESTIGACION JUSTESA IMAGEN S.A., priority 1991, dated 1993) can be followed below.

For `COCC(=O)Nc1c(I)c(C(=O)NCC(O)CO)c(I)c(C(=O)N(C)CC(=O)N(C)c2c(I)c(C(=O)NC(CO)C(O)CO)c(I)c(C(=O)NC(CO)C(O)CO)c2I)c1I` (centres unmarked) [EXAMPLE 9, N,N'-bis-(1-hydroxymethyl-2,3-dihydroxypropyl)-5-{3-[N-(2,3-dihydroxypropyl)carbamoyl]-5-methoxyacetamido-2,4,6-triiodobenzoyl-N-methylaminoacetyl-N-methylamino}-2,4,6-tri-iodoisophthalamide], in series [1], the “Viscosity (mPa.S at 300 mg I/ml) 37°C” value was 8,2 mPa.S and the “Viscosity mPa s (30°C) at 300mg I/ml” value is listed as 8,2 mPa s. For the same compound, the “LD50, rat i.v. (g I/kg)” value in the series with Sprague-Dawley rats was 20-25 g I/kg. Besides, in “Iodine content”, the “% Iodine” value was 49,6% and the “Iodine Content (%)” value is 49,6%. Further, in series [2], the “Osmolality mosm/kg at 300mg I/ml” value amounted to 226 mosm/kg and the “Osmolality (mOsm/kg at 300 mg I/ml) 37°C” value stood at 226 mOsm/kg. Further, in the series on rat, the “ED50, rat i.cis. (mg I/kg)” value was 350 mg I/kg.
On to `CN(CC(=O)N(C)c1c(I)c(C(=O)NCC(O)CO)c(I)c(C(=O)NCC(O)CO)c1I)C(=O)c1c(I)c(NC(=O)CO)c(I)c(C(=O)NCC(O)CO)c1I` (centres unmarked) [EXAMPLE 11, N,N'-bis-(2,3-dihydroxypropyl)-5-{3-[N-(2,3-dihydroxypropyl)carbamoyl]-5-hydroxyacetamido-2,4,6-triiodobenzoyl-N-methylaminoacetyl-N-methylamino}-2,4,6-triiodo isophthalamide], for which, in series [1], the “Viscosity (mPa.S at 300 mg I/ml) 37°C” value was 7,0 mPa.S and the “Viscosity mPa s (30°C) at 300mg I/ml” value was 6,9 mPa s. Further, the “LD50, rat i.v. (g I/kg)” value with Sprague-Dawley rats is listed as 23 g I/kg. Moreover, in “Iodine content”, the “% Iodine” value was 52% and the “Iodine Content (%)” value is listed as 52,1%. Besides, in series [2], the “Osmolality mosm/kg at 300mg I/ml” value was found to be 152 mosm/kg and the “Osmolality (mOsm/kg at 300 mg I/ml) 37°C” value stood at 152 mOsm/kg. The “ED50, rat i.cis. (mg I/kg)” value in the series with rat stood at 500 mg I/kg.
In the case of `CN(CC(O)CO)C(=O)c1c(I)c(C(=O)N(C)CC(O)CO)c(I)c(N(C)C(=O)CNC(=O)c2c(I)c(NC(=O)CO)c(I)c(C(=O)NCC(O)CO)c2I)c1I` (centres unmarked) [EXAMPLE 26, N,N'-bis-(2,3-dihydroxypropyl)-N,N'-dimethyl-5-{3-[N-(2,3-dihydroxypropyl)carbamoyl]-5-hydroxyacetamido-2,4,6-triiodobenzoylaminoacetyl-N-methylamino}-2,4,6-triiodoiso phthalamide], the “Viscosity mPa s (30°C) at 300mg I/ml” value in series [1] was 7,7 mPa s. Besides, the “% Iodine” value in the series “Iodine content” was 51,6%. For the same compound, the “Osmolality mosm/kg at 300mg I/ml” value in series [2] came to 145 mosm/kg.
For `COCC(=O)N(CCO)c1c(I)c(C(=O)NCC(O)CO)c(I)c(C(=O)N(CCO)CC(=O)N(CCO)c2c(I)c(C(=O)NCCO)c(I)c(C(=O)NCCO)c2I)c1I` (centres unmarked) [EXAMPLE 32, N,N'-bis-(2-hydroxyethyl)-5-{3-[N-(2,3-dihydroxypropyl)carbamoyl]-5-methoxyacetyl-N-(2-hydroxyethyl)amino-2,4,6-triiodobenzoyl-N-(2-hydroxyethyl)aminoacetyl-N-(2-hydroxyethyl)amino}-2,4,6-triiodoisophthalamide], the “Viscosity mPa s (30°C) at 300mg I/ml” value in series [1] is 8,2 mPa s. In addition, the “% Iodine” value in “Iodine content” is 50%. For the same compound, the “Osmolality mosm/kg at 300mg I/ml” value in series [2] was 155 mosm/kg.
In the case of `COCC(=O)N(CCO)c1c(I)c(C(=O)NCC(O)CO)c(I)c(C(=O)N(C)CC(=O)N(CCO)c2c(I)c(C(=O)NCC(O)CO)c(I)c(C(=O)NCC(O)CO)c2I)c1I` (centres unmarked) [EXAMPLE 35, N,N'-bis-(2,3-dihydroxypropyl)-5-{3-[N-(2,3-dihydroxypropyl)carbamoyl]-5-methoxyacetyl-N-(2-hydroxyethyl)amino-2,4,6-triiodobenzoyl-N-methylaminoacetyl-N-(2-hydroxyethyl)amino}-2,4,6 triiodoisophthalamide], the “Viscosity mPa s (30°C) at 300mg I/ml” value in series [1] is listed as 8,2 mPa s. The “% Iodine” value in the series “Iodine content” is 49,1%. Besides, the “Osmolality mosm/kg at 300mg I/ml” value in series [2] amounted to 214 mosm/kg.
`CC(=O)Nc1c(I)c(C(=O)NCC(O)CO)c(I)c(C(=O)N(CC(=O)Nc2c(I)c(C(=O)NCC(O)CO)c(I)c(C(=O)NCC(O)CO)c2I)CC(O)CO)c1I` (centres unmarked) [EXAMPLE 36, N,N-bis-(2,3-dihydroxypropyl)-5-{3-[N-(2,3-dihydroxypropyl)carbamoyl]-5-acetamido-2,4,6-triiodobenzoyl-N-(2,3-dihidroxypropyl)aminoacetamido}-2,4,6-triiodoisophthalamide]: in series [1], the “Viscosity (mPa.S at 300 mg I/ml) 37°C” value was 8,3-8,8 mPa.S and the “Viscosity mPa s (30°C) at 300mg I/ml” value is recorded as 8,8 mPa s. In addition, the “LD50, rat i.v. (g I/kg)” value in the series on Sprague-Dawley rats is given as 25-27 g I/kg. In addition, in “Iodine content”, the “% Iodine” value came to 51% and the “Iodine Content (%)” value is reported as 51,0%. Besides, in series [2], the “Osmolality mosm/kg at 300mg I/ml” value is listed as 125 mosm/kg and the “Osmolality (mOsm/kg at 300 mg I/ml) 37°C” value was found to be 125 mOsm/kg. In the series with rat, the “ED50, rat i.cis. (mg I/kg)” value was found to be 550 mg I/kg.
`CC(=O)Nc1c(I)c(C(=O)NCC(O)CO)c(I)c(C(=O)N(C)CC(=O)N(C)c2c(I)c(C(=O)NCC(O)CO)c(I)c(C(=O)NCC(O)CO)c2I)c1I` (centres unmarked) [EXAMPLE 37, N,N'-bis-(2,3-dihydroxypropyl)-5-{3-[N-(2,3-dihydroxypropyl)carbamoyl]-5-acetamido-2,4,6-triiodobenzoyl-N-methylacetyl-N-methylamino}-2,4,6-triiodoisophthalamide]: the “Viscosity mPa s (30°C) at 300mg I/ml” value in series [1] is reported as 9,9 mPa s. For the same compound, the “% Iodine” value in “Iodine content” is reported as 52,6%. The “Osmolality mosm/kg at 300mg I/ml” value in series [2] is 130 mosm/kg.
`CC(=O)Nc1c(I)c(C(=O)NCC(O)CO)c(I)c(C(=O)N(C)CC(=O)N(C)c2c(I)c(C(=O)NC(CO)C(O)CO)c(I)c(C(=O)NC(CO)C(O)CO)c2I)c1I` (centres unmarked) [EXAMPLE 38, N,N'-bis-(1-hydroxymethyl-2,3-dihydroxypropyl)-5-{3-[N-(2,3-dihydroxypropyl]carbamoyl]-5-acetamido-2,4,6-triiodobenzoyl -N-methylacetyl-N-methylamino}-2,4,6-triiodoisophthalamide]: the “Viscosity mPa s (30°C) at 300mg I/ml” value in series [1] is on record as 9,1 mPa s. The “% Iodine” value in the series “Iodine content” was 50,6%. In addition, the “Osmolality mosm/kg at 300mg I/ml” value in series [2] is given as 155 mosm/kg.
On to `COCC(=O)Nc1c(I)c(C(=O)NCC(O)CO)c(I)c(C(=O)N(CC(=O)N(C)c2c(I)c(C(=O)NCC(O)CO)c(I)c(C(=O)NCC(O)CO)c2I)CC(O)COC)c1I` (centres unmarked) [EXAMPLE 39, N,N'-bis-(2,3-dihydroxypropyl)-5-{3-[N-(2,3-dihydroxypropyl)carbamoyl]-5-methoxyacetamido-2,4,6-triiodobenzoyl--N-(2-hydroxy-3-methoxypropyl)aminoacetyl-N-methylamino} -2,4,6-triiodoisophthalamide], for which, in series [1], the “Viscosity mPa s (30°C) at 300mg I/ml” value was 9,6 mPa s. The “% Iodine” value in the series “Iodine content” is listed as 49,1%. In series [2], the “Osmolality mosm/kg at 300mg I/ml” value was 190 mosm/kg.
Regarding `COCCN(C(=O)CO)c1c(I)c(C(=O)NCC(=O)N(CCOC)c2c(I)c(C(=O)NCC(O)CO)c(I)c(C(=O)NCC(O)CO)c2I)c(I)c(C(=O)NCC(O)CO)c1I` (centres unmarked) [EXAMPLE 40, N,N'-bis-(2,3-dihydroxypropyl)-5-{3-[N-(2,3-dihydroxypropyl)carbamoyl]-5-hydroxyacetyl-N-(2-methoxyethyl)amino-2,4,6-triiodobenzoylaminoacetyl-N-(2-methoxyethyl)amino} -2,4,6-triiodoisophthalamide], the “Viscosity mPa s (30°C) at 300mg I/ml” value in series [1] is on record as 10,2 mPa s. In addition, in the series “Iodine content”, the “% Iodine” value is on record as 49,1%. In addition, the “Osmolality mosm/kg at 300mg I/ml” value in series [2] was 160 mosm/kg.
Take `COCC(=O)Nc1c(I)c(C(=O)N(C)CC(=O)N(C)c2c(I)c(C(=O)NCC(O)CO)c(I)c(C(=O)NCC(O)CO)c2I)c(I)c(C(=O)N(CCO)CC(O)CO)c1I` (centres unmarked) [EXAMPLE 41, N,N'-bis-(2,3-dihydroxypropyl)-5-{3-[N-(2-hydroxyethyl)-N-(2,3-dihydroxypropyl)carbamoyl]-5-methoxyacetamido-2,4,6-triiodobenzoyl-N-methylaminoacetyl-N-methylamino} --2,4,6-triiodoisophthalamide]: the “Viscosity mPa s (30°C) at 300mg I/ml” value in series [1] is reported as 9,0 mPa s. Further, in the series “Iodine content”, the “% Iodine” value is reported as 50,0%. The “Osmolality mosm/kg at 300mg I/ml” value in series [2] turned out to be 135 mosm/kg.
On to `CC(=O)Nc1c(I)c(C(=O)NCC(O)CO)c(I)c(C(=O)N(C)CC(=O)N(C)c2c(I)c(C(=O)N(CCO)CC(O)CO)c(I)c(C(=O)N(CCO)CC(O)CO)c2I)c1I` (centres unmarked) [EXAMPLE 42, N,N'-bis-(2-hydroxyethyl)-N,N'-bis-(2,3-dihydroxypropyl)-5-{3-[N-(2,3-dihydroxypropyl)carbamoyl]-5-acetamido-2,4,6-triiodobenzoyl-N-methylaminoacetyl-N-methylamino}-2,4,6-triiodoisophthalamide], for which, in series [1], the “Viscosity mPa s (30°C) at 300mg I/ml” value is on record as 8,8 mPa s. Also, the “% Iodine” value in “Iodine content” is 49,6%. Further, the “Osmolality mosm/kg at 300mg I/ml” value in series [2] is recorded as 180 mosm/kg.
On to `CN(C(=O)CC(=O)N(C)c1c(I)c(C(=O)NC(CO)C(O)CO)c(I)c(C(=O)NC(CO)C(O)CO)c1I)c1c(I)c(C(=O)NC(CO)C(O)CO)c(I)c(C(=O)NC(CO)C(O)CO)c1I` (stereo not drawn) [IOTROLAN, N,N'-dimethyl-N,N'-bis[3,5-(l-hydroxymethyl-2,3-dihydroxy-propyl-carbamoyl) -2,4,6-triiodo-phenyl]-diamide of malonic acid, reference compound], for which the “Viscosity (mPa.S at 300 mg I/ml) 37°C” value in series [1] is on record as 8,1-9,2 mPa.S. In addition, the “LD50, rat i.v. (g I/kg)” value in the series with Sprague-Dawley rats is recorded as 25-28 g I/kg. For the same compound, the “Iodine Content (%)” value in “Iodine content” is 47%. The “Osmolality (mOsm/kg at 300 mg I/ml) 37°C” value in series [2] is given as 320 mOsm/kg. Also, the “ED50, rat i.cis. (mg I/kg)” value with rat was found to be 315 mg I/kg.
